Patent US20250144224A1, “ABL INHIBITORS AND USES THEREOF” (The Regents of the University of California, priority 2021, published 2025)

Columns and labels:
[1] = Parallel artificial membrane permeability assay (PAMPA); type: in vitro ADME; conditions: 100 μM in PBS, 5 h, LC-MS
Experimental: PAMPA was performed by Quintara Discovery using the BioCoat Pre-coated PAMPA Plate System (Corning) as described previously (15) and based on manufacturer's recommendations. All compounds were assessed at 100 μM in PBS. Compound concentrations in donor and acceptor compartments were quantified using liquid chromatography-mass spectrometry (LC-MS) 5 h following compound addition into the donor compartment.

[2] = system: intracellular BCR-ABL1 in K562 CRISPRi/a cells; test: Immunoblots of pharmacodynamic markers of BCR-ABL1 inhibition; type: cell-based, human; conditions: nanomolar concentrations (10 nM)
Experimental: FIGS. 3A-3F. […] Data represent two biological replicates. […] Data represent three biological replicates.
Cells (500,000 cells in 2 mL per well) were seeded into 6-well plates and incubated at 37° C. overnight. Following treatment with compounds at the concentrations and times indicated, cells were placed over ice, transferred to 2 mL microcentrifuge tubes, and pelleted at 500 g, 4° C. The pelleted cells were washed twice with ice-cold phosphate-buffered saline (PBS) and stored at −80° C. […] Proteins were separated by polyacrylamide gel electrophoresis (PAGE), transferred to 0.2 μm pore size nitrocellulose membranes (Bio-Rad) and blocked using blocking buffer [5% bovine serum albumin (Millipore) in Tris-buffered saline, 0.1% Tween 20 (TBST) supplemented with 0.02% NaN3]. Membranes were probed with primary antibodies against FKBP12 (ab58072) from Abcam and p-ABL1^Y245 (2861), p-CRKL^Y207 (3181), IFITM1 (13126), IFITM2 (13530), IFITM3 (59212), p-STAT5^Y694 (4322), and Tubulin (3873) from Cell Signaling Technology diluted (1:1000) in blocking buffer. After primary antibody incubation, membranes were treated with IRDye secondary antibodies (LI-COR Biosciences) according to manufacturer's recommendations and scanned on an Odyssey Imaging System (LI-COR Biosciences). Immunoblot scans were processed using ImageStudioLite 5.2.5 (LI-COR).

[3] = system: K562 cells (CRISPR base-edited Bcr-Abl T315I); test: CellTiter-Glo cell viability, K562 Bcr-Abl T315I; conditions: Homo sapiens, K562, 72 h, read-out: EC50 (nM) CTG K562 T315I
Experimental: (§1) Compounds were tested for ability to inhibit cell growth. K562 cells (wild-type or CRISPR base-edited Bcr-Abl T315I) were plated at 1000 cells/well in 96-well plates and treated with the indicated compounds at the indicated concentrations for three days in triplicate, then tested for cell viability by the CellTiter-Glo 2.0 assay (Promega).
(§2) Compounds were tested for ability to inhibit cell growth. K562 cells (wild-type or CRISPR base-edited Bcr-Abl T315I) were plated at 1000 cells/well in 96-well plates and treated with the indicated compounds at the indicated concentrations for three days in triplicate, then tested for cell viability by the CellTiter-Glo 2.0 assay (Promega). […] Compounds were tested for ability to inhibit cell growth. K562 cells (wild-type or CRISPR base-edited Bcr-Abl T315I) were plated at 1000 cells/well in 96-well plates and treated with the indicated compounds at the indicated concentrations for three days in triplicate, then tested for cell viability by the CellTiter-Glo 2.0 assay (Promega).
(§3) Cells were treated with the indicated concentrations of compound in 9-point 3-fold dilution series (100 μL final volume per well) and incubated at 37° C. for 72 h. Cell viability was assessed by CellTiter-Glo (CTG) Luminescent Cell Viability Assay (Promega). Cells were equilibrated to room temperature before the addition of diluted (1:4 CTG reagent:PBS) CTG reagent (100 μL per well). Plates were agitated on an orbital shaker and luminescence signal was measured on a SpectraMax M5 (Molecular Devices) or Spark (Tecan) plate reader. Repeated measurements of luminescence were performed as technical replicates to determine incubation times optimal for signal-to-noise. Luminescence measurements were normalized to DMSO-treated values to determine relative cell viability.

[4] = system: kinases labeled by XO44 in K562 CRISPRi cells; test: Live cell kinase occupancy profiling with XO44 probe; conditions: 100 nM, 4 h pretreatment, then XO44, live K562 CRISPRi cells
K562 cells (wild-type) = test: CellTiter-Glo cell viability, K562 wild-type; conditions: Homo sapiens, K562, 72 h, read-out: EC50 (nM) CTG K562 wt
Experimental: as §1, §2, §3

[5] = system: K562 CRISPRi or CRISPRa cells with IFITM1-3 expression modulation; test: Chemical-genetic interaction mapping (IC50 shift in cell viability assay); type: cell-based, human; conditions: IFITM1-3 knockdown (CRISPRi) or overexpression (CRISPRa), 72 h
Experimental: Cell viability was assessed by CellTiter-Glo (CTG) Luminescent Cell Viability Assay (Promega). Cells were equilibrated to room temperature before the addition of diluted (1:4 CTG reagent:PBS) CTG reagent (100 μL per well). Plates were agitated on an orbital shaker and luminescence signal was measured on a SpectraMax M5 (Molecular Devices) or Spark (Tecan) plate reader. Repeated measurements of luminescence were performed as technical replicates to determine incubation times optimal for signal-to-noise. Luminescence measurements were normalized to DMSO-treated values to determine relative cell viability.
Cells treated with compounds were evaluated for viability as described herein. […] The same top concentrations were used in K562 CRISPRa cells with the exception of HJB97 (1 μM), JQ1 (1 μM), MZ1 (1 μM), and dBET6 (100 nM). Using Prism 9 (GraphPad Software), a 4-parameter nonlinear regression model was fit to the viability data to determine IC50 values. IC50 values of sgRNA+ cells were normalized to that of non-sgRNA expressing cells to determine sensitivity/resistance chemical-genetic interactions mapped in FIG. 4B.

ABL1 kinase domain = biological target: T1, ABL1 kinase domain (Homo sapiens, UniProt P00519); test: ATP-site kinase pulldown (KdELECT competition binding); conditions: 100-fold molar excess asciminib
T1 sequence (P00519 242-493 limits assumed): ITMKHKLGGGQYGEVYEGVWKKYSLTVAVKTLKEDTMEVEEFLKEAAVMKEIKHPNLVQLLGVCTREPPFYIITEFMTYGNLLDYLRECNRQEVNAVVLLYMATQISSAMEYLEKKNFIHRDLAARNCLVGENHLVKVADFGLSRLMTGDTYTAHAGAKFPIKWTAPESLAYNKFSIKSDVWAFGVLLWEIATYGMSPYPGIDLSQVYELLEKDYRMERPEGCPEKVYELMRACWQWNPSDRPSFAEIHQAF
Experimental: ATP-site competition binding assay (KdELECT) was performed by Eurofins DiscoverX as described previously (11). Compounds were assessed in 11-point 3-fold dilution series and compound mixtures were analogously diluted from a DMSO stock containing the 2 compounds at the ratio indicated. Pulldown measurements of DNA-tagged kinase by quantitative polymerase chain reaction (qPCR) were normalized to DMSO-treated values to determine relative ATP-site pulldown. A 4-parameter nonlinear regression model was fit to the data using Prism 9 (GraphPad Software) with the top parameter constrained to 100%.

Cc1nc(Nc2ncc(C(=O)Nc3c(C)cccc3Cl)s2)cc(N2CCN(C(=O)CCOCCOCCOCCOCCOCCOCCOCCOCCOCCOCCOCCOCCNC(=O)C3CCN(c4ncc(C(=O)Nc5ccc(OC(F)(F)Cl)cc5)cc4-c4ccn[nH]4)CC3)CC2)n1 [DasatiLink-1]
artificial membrane permeability by PAMPA [1]: impermeable
time required for maximal inhibition of target [2]: multiple hours
EC50 [3]: > 300 nM
intracellular kinase occupancy (kinome-wide selectivity) [4]: observable intracellular occupancy of only a single kinase
EC50 (K562 cells (wild-type)): 2.47 nM
IFITM dependency of potency (IC50 shift in cell viability assay) [5]: validated the IFITM dependency
effect of excess asciminib on ability to occupy the ATP-site (ABL1 kinase domain): impaired the ability of DasatiLink-1 to occupy the ATP-site
